Assays:
[1] = target: recombinant SARS-CoV-2 M^pro (Severe acute respiratory syndrome coronavirus 2 (2019-nCoV) (SARS-CoV-2), UniProt P0DTD1); test: Inhibition of SARS-CoV-2 M^pro enzyme activity (fluorescent substrate assay); format: biochemical; settings: inhibition of SARS-CoV-2 M^pro enzyme activity; values in nM; read-out: IC50
[2] = male, Sprague-Dawley, rat, in vivo, iv, 1 mg/kg
in vivo = settings: male, Sprague-Dawley, rat
[3] = Cytotoxic assay against Vero E6 cells (MTT, 72 h); format: cell-based; settings: African green monkey
Method: The cytotoxicity assessment of compounds was performed against Vero E6 cells. The specific experimental procedures: Vero E6 cells were seeded into a 96-well plate at a cell density of 2×10^4 cells/well, with 100 μL/well, and then incubated overnight at 37° C. in a 5% CO2 incubator. The next day, 100 μL of drug-containing medium was added to each well. The compound was diluted in a 2-fold serial dilution with a top concentration of […], for a total of 6 gradients. Three repeated wells were set for each concentration, and negative controls and blank controls without drugs were included for each experiment. […] All experimental data were analyzed using GraphPad Prism software.

[4] = Cytotoxic assay against human BEAS-2B cells (MTT, 72 h); format: cell-based; settings: human
Method: (§1) BEAS-2B cells (normal human bronchial epithelial cells) and HUVEC cells (human umbilical vein endothelial cells) were used to evaluate the cytotoxicity of compounds against human-derived cells. The detailed experimental procedures: BEAS-2B cells or HUVEC cells were seeded into a 96-well plate at a cell density of 2×10^4 cells/well, that is, 100 µL/well, and then incubated overnight at 37° C. in a 5% CO2 incubator. The next day, 100 μL of drug-containing medium was added to each well. The compound was diluted in a 2-fold serial dilution with a top concentration of […], for a total of 6 gradients. Three repeated wells were set for each concentration, and negative controls and blank controls without drugs were included for each experiment. […] All experimental data were analyzed using GraphPad Prism software.

[5] = Cytotoxic assay against HUVEC cells (MTT, 72 h); format: cell-based, human; settings: human
Method: as §1

[6] = Metabolic stability using human liver microsomes; format: in vitro ADME; settings: pH 7.4, NADPH, 37° C., read-out: Human liver microsomes T1/2
human thrombin = human thrombin (Homo sapiens (Human), UniProt P00734); test: Human protease biochemical activity assay: Thrombin activity testing kit; settings: read-out: Thrombin IC50
Method: (§2) The biochemical activity of compounds against human proteases was determined using Cathepsin K inhibitor screening kit (K150-100), Cathepsin B inhibitor screening kit (K147-100), Thrombin activity testing kit (K373-100), Caspase-2 inhibitor screening kit (K152-100), and Cathepsin D inhibitor screening kit (K148-100) according to the instructions of the kits (Biovision, USA). All experiments were carried out in triplicate. All experimental data were analyzed using GraphPad Prism software.

human caspase 2 = human caspase 2 (Homo sapiens (Human), UniProt P42575); test: Human protease biochemical activity assay: Caspase-2 inhibitor screening kit; settings: read-out: Caspase-2 IC50
human caspase 2, sequence (P42575 170-325): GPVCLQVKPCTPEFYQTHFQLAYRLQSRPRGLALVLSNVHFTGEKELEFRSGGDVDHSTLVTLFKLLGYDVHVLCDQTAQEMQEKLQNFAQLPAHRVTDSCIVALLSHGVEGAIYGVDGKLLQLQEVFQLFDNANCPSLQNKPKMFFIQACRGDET
human caspase 2, sequence (P42575 348-452): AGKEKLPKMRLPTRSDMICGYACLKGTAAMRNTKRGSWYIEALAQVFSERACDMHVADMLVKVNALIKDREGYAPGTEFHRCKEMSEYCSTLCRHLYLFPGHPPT
Method: as §2

human cathepsin D = human cathepsin D (Homo sapiens (Human), UniProt P07339); test: Human protease biochemical activity assay: Cathepsin D inhibitor screening kit
human cathepsin D, sequence (P07339 65-412): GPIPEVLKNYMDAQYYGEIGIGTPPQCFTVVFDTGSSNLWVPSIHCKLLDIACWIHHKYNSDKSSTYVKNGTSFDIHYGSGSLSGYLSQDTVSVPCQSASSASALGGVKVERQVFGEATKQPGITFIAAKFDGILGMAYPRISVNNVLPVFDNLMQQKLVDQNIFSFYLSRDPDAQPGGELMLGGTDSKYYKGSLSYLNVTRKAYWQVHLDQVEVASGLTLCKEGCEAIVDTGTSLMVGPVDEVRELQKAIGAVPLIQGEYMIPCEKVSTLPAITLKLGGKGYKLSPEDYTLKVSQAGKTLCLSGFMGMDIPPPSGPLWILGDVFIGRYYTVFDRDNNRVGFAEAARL
Method: as §2

human cathepsin K = human cathepsin K (Homo sapiens (Human), UniProt P43235); test: Human protease biochemical activity assay: Cathepsin K inhibitor screening kit; settings: read-out: Cathepsin K IC50
human cathepsin K, sequence (P43235 115-329): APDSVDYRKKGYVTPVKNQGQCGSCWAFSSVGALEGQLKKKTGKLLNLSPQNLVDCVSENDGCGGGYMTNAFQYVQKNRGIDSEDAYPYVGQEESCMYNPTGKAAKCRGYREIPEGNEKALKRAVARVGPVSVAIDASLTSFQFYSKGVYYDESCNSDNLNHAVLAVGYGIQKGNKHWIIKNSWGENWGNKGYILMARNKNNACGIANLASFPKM
Method: as §2

human cathepsin B = human cathepsin B (Homo sapiens (Human), UniProt P07858); test: Human protease biochemical activity assay: Cathepsin B inhibitor screening kit
Method: as §2

Structure (SMILES) | IC50 [1] [nM] | Vssobs [2] [L/kg] | AUC(0-inf) (in vivo; iv, 1 mg/kg) [ng·h/mL] | AUC(0-t) (in vivo; iv, 1 mg/kg) [ng·h/mL] | Cmax (in vivo; iv, 1 mg/kg) [ng/mL] | MRT inf (in vivo; iv, 1 mg/kg) [h] | Tmax (in vivo; iv, 1 mg/kg) [h] | clearance (in vivo; iv, 1 mg/kg) [mL/min/kg] | half-life (in vivo; iv, 1 mg/kg) [h] | AUC(0-inf) (in vivo; po, 10 mg/kg) [ng·h/mL] | AUC(0-t) (in vivo; po, 10 mg/kg) [ng·h/mL] | Cmax (in vivo; po, 10 mg/kg) [ng/mL] | MRT inf (in vivo; po, 10 mg/kg) [h] | Tmax (in vivo; po, 10 mg/kg) [h] | half-life (in vivo; po, 10 mg/kg) [h] | CC50 at 72 h [3] [µM] | CC50 at 72 h [4] [µM] | CC50 at 72 h [5] [µM] | other results
C[C@@H](NC(=O)C1CCC(F)(F)CC1)C(=O)N[C@H](Cc1ccccc1)C(=O)C(=O)NCc1ccccn1 [Compound 145] | 17.1 ± 2.5 | 14.5 ± 2.62 | 1180 ± 208 | 1160 ± 205 | 1640 ± 86.6 | 1.09 ± 0.13 | 0.08 | 1.73 ± 0.37 | 1.37 ± 0.05 | 3850 ± 875 | 3830 ± 872 | 1170 ± 223 | 3.75 ± 0.56 | 0.33 ± 0.14 | 3.19 ± 0.06 |  |  |  | bioavailability (in vivo; po, 10 mg/kg): 32.9 ± 7.51%
C[C@@H](NC(=O)C1CCCC(F)(F)C1)C(=O)N[C@H](Cc1ccccc1)C(=O)C(=O)NCc1nccs1 (stereo partly shown) [Compound 375] | 13.8 ± 1.2 |  |  |  |  |  |  |  |  |  |  |  |  |  |  | > 500 | 325 | 384 | 
C[C@@H](NC(=O)N1CCC(F)(F)CC1)C(=O)N[C@H](Cc1ccccc1)C(=O)C(=O)NCc1ccccn1 [Compound 296, N—((R)-1-(((R)-3,4-dioxo-1-phenyl-4-((pyridin-2-ylmethyl)amino)butan-2-yl)amino)-1-oxopropan-2-yl)-4,4-difluoropiperidin-1-formamide] | 14.8 ± 0.1 | 16.3 ± 2.68 | 1040 ± 162 | 1020 ± 156 | 1400 ± 22.9 | 1.17 ± 0.44 | 0.08 | 4.65 ± 3.87 | 3.55 ± 3.39 | 5190 ± 1010 | 5180 ± 1010 | 1040 ± 209 | 4.43 ± 0.87 | 0.25 | 2.8 ± 0.09 |  |  |  | bioavailability (in vivo; po, 10 mg/kg): 50.6 ± 9.84%
O=C(NCc1ccccn1)C(=O)[C@@H](Cc1ccccc1)NC(=O)[C@H]1COCCN1C(=O)CC1CCC(F)(F)CC1 [Compound 289] | 10.6 ± 0.1 |  |  |  |  |  |  |  |  | 3250 ± 462 | 3240 ± 460 | 1040 ± 349 | 2.98 ± 0.33 | 0.5 | 3.28 ± 0.19 | > 500 |  |  | 
CC(C)(C)[C@H](NC(=O)C(F)(F)F)C(=O)N1C[C@H]2[C@@H]([C@H]1C(=O)N[C@H](C#N)C[C@@H]1CCNC1=O)C2(C)C [PF-07321332, Nirmatrelvir, reference compound] |  |  |  |  |  |  |  |  |  |  |  |  |  |  |  |  |  |  | half-life at 1 µM [6]: 0.353 h
O=C(NCc1nccs1)C(=O)[C@@H](Cc1ccccc1)NC(=O)[C@H]1CC(F)(F)CN1C(=O)C1CCC(F)(F)CC1 [Compound 402] | 19.9 ± 0.3 |  |  |  |  |  |  |  |  |  |  |  |  |  |  | 410 | > 500 | 327 | 
C[C@@H](NC(=O)[C@@H]1C[C@@H]2[C@H](C1)C2(F)F)C(=O)N[C@H](Cc1ccccc1)C(=O)C(=O)NCc1ccccn1 [Compound 126] | 11.1 ± 0.6 | 16.6 ± 5.41 | 1070 ± 295 | 1050 ± 285 | 1860 ± 138 | 1.06 ± 0.56 | 0.08 | 4.63 ± 3.62 | 3.65 ± 3.48 | 5270 ± 327 | 5270 ± 325 | 1559 ± 11.6 | 4.02 ± 0.17 | 0.5 | 2.46 ± 0.15 | > 500 |  |  | bioavailability (in vivo; po, 10 mg/kg): 49.9 ± 3.08%
C[C@@H](NC(=O)CC1CC(F)(F)C1)C(=O)N[C@H](Cc1ccccc1)C(=O)C(=O)NCc1cscn1 [Compound 418] | 10.6 ± 0.3 |  |  |  |  |  |  |  |  |  |  |  |  |  |  | > 500 | > 500 | > 500 | 
C[C@@H](NC(=O)C1CCC(F)(F)CC1)C(=O)N[C@H](Cc1ccco1)C(=O)C(=O)NCc1ccccn1 [Compound 362] | 34 ± 0.6 |  |  |  |  |  |  |  |  |  |  |  |  |  |  | > 500 | > 500 | > 500 | half-life at 1 µM [6]: 0.561 h
O=C(CNC(=O)C1CCC(F)(F)CC1)N[C@H](Cc1ccccc1)C(=O)C(=O)NCc1ccccn1 [Compound 155] | 14.1 ± 0.1 | 3.29 ± 0.42 | 5120 ± 628 | 5100 ± 615 | 1570 ± 7.88 | 3.99 ± 0.42 | 0.08 | 0.88 ± 0.1 | 3.12 ± 0.35 | 12400 ± 2230 | 12300 ± 2270 | 1150 ± 289 | 5.98 ± 0.36 | 0.33 ± 0.14 | 3.75 ± 0.62 | 281 |  |  | 
C[C@@H](NC(=O)C1CCC(F)(F)C1)C(=O)N[C@H](Cc1ccccc1)C(=O)C(=O)NCc1cscn1 (stereo partly shown) [Compound 415] | 19.4 ± 2.2 |  |  |  |  |  |  |  |  |  |  |  |  |  |  | > 500 | > 500 | 468 | 
O=C(CC1CC(F)(F)C1)NCC(=O)N[C@H](Cc1ccccc1)C(=O)C(=O)NCc1cscn1 [Compound 423] | 13.2 ± 0.2 |  |  |  |  |  |  |  |  |  |  |  |  |  |  | > 500 | > 500 | > 500 | 
C[C@@H](NC(=O)CC1CC1(F)F)C(=O)N[C@H](Cc1ccccc1)C(=O)C(=O)NCc1cscn1 (stereo partly shown) [Compound 417] | 22.1 ± 3 |  |  |  |  |  |  |  |  | 5070 ± 2290 | 4890 ± 2320 | 441 ± 225 | 6.55 ± 0.39 | 3.33 ± 1.15 | 5.07 ± 1.78 | > 500 | > 500 | > 500 | IC50 (human thrombin): > 100 µM; IC50 (human caspase 2): > 100 µM; IC50 (human cathepsin D): > 100 µM; IC50 (human cathepsin K): > 100 µM; half-life at 1 µM [6]: 0.534 h; IC50 (human cathepsin B): > 100 µM
O=C(CC1CC(F)(F)C1)NCC(=O)N[C@H](Cc1ccccc1)C(=O)C(=O)NCc1nccs1 [Compound 387] | 12.5 ± 1.2 |  |  |  |  |  |  |  |  |  |  |  |  |  |  | > 500 | > 500 | > 500 | 
O=C(CC1CCC(F)(F)CC1)NCC(=O)N[C@H](Cc1ccccc1)C(=O)C(=O)NCc1ccccn1 [Compound 150] | 12.2 ± 0.1 | 2.91 ± 1.48 | 6630 ± 2650 | 6420 ± 2820 | 2010 ± 322 | 3.94 ± 1.26 | 0.08 | 0.83 ± 0.21 | 3.59 ± 0.8 | 12900 ± 3230 | 12600 ± 3080 | 1300 ± 307 | 5.95 ± 0.09 | 0.42 ± 0.14 | 4.26 ± 0.63 | > 500 |  |  | bioavailability (in vivo; po, 10 mg/kg): 19.7 ± 4.8%
